Results on 8 molecules are retold here after patent US20200331925A1, “HETEROCYCLIC COMPOUNDS FOR THE TREATMENT OF ABNORMAL CELLULAR PROLIFERATION” (G1 Therapeutics, Inc., priority 2018, published 2020).

Common to all, as to format: biochemical
One assay deals with CDK7/Cyclin H (Homo sapiens, UniProt P50613). Nature of the assay: CDK7/Cyclin H kinase assay (Nanosyn, Caliper microfluidic). As to conditions: 12-point dose-response, ATP at Km (50 μM), 17 hr. On the procedure: (§1) Selected compounds disclosed herein were tested in kinase assays by Nanosyn (Santa Clara, Calif.) to determine their inhibitory effect on selected CDKs. The assays were performed using microfluidic kinase detection technology (Caliper Assay Platform). The compounds were tested in 12-point dose-response format in singlicate at Kmfor ATP. Phosphoacceptor substrate peptide concentration used was 1 μM for all assays and Staurosporine was used as the reference compound for all assays. Specifics of each assay are as described below: CDK7/Cyclin H: Enzyme concentration: 10 nM; ATP concentration: 50 μM; Incubation time: 17 hr.
Chain of CDK7/Cyclin H (P50613 whole entry): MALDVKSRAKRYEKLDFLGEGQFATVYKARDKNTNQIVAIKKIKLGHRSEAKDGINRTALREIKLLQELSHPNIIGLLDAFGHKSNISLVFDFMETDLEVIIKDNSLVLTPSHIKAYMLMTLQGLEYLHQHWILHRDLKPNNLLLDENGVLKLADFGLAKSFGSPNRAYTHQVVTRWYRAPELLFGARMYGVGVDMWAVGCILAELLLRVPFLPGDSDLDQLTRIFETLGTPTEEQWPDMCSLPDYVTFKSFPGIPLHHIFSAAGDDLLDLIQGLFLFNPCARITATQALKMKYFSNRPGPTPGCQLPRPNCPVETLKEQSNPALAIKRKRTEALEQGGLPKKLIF
Chain of CDK7/Cyclin H (P51946 whole entry partner): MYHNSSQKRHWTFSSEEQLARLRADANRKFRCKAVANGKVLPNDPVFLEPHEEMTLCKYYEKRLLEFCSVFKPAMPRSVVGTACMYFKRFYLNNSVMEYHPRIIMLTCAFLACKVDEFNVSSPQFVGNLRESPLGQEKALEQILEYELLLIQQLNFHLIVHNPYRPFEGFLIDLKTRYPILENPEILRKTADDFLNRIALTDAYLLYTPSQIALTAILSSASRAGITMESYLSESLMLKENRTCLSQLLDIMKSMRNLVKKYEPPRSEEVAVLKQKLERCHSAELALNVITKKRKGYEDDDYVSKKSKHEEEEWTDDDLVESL
Chain of CDK7/Cyclin H (P51948 whole entry partner): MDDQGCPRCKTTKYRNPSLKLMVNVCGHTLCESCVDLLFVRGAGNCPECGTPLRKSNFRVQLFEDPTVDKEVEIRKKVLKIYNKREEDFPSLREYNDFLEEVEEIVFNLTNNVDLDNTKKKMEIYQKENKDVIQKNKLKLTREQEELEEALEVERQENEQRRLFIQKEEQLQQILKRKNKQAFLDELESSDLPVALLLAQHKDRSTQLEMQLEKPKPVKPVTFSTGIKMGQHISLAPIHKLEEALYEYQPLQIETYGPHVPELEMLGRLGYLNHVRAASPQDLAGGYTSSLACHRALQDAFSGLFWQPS

For the next assay, the target named is CDK5/p25 (Homo sapiens, UniProt Q00535). As to the kind of experiment: CDK5/p25 kinase assay (Nanosyn, Caliper microfluidic). To be noted: 12-point dose-response, ATP at Km (20 μM), 3 hr. On the procedure:
as §1, with “CDK5/p25:” for “CDK7/Cyclin H:”, “0.1” for “10”, “20” for “50”, “3” for “17”

Another assay addresses CDK2/Cyclin E (Homo sapiens, UniProt P24941). Nature of the assay: CDK2/Cyclin E kinase assay (Nanosyn, Caliper microfluidic). As to conditions: 12-point dose-response, ATP at Km (100 μM), 3 hr. On the procedure: as §1, with “CDK2/Cyclin E:” for “CDK7/Cyclin H:”, “0.15” for “10”, “100” for “50”, “3” for “17”
The target in another assay is CDK9/Cyclin T (Homo sapiens, UniProt P50750). Nature of the assay: CDK9/Cyclin T kinase assay (Nanosyn, Caliper microfluidic). As to conditions: 12-point dose-response, ATP at Km (10 μM), 17 hr; Table 5. In outline:
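Caliper microfluidic mobility-shift read-out, 12-point dose-response in singlicate at ATP Km with 1 μM peptide substrate; staurosporine reference.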

The target of a further assay is CDK6/Cyclin D3 (Homo sapiens, UniProt Q00534). As to the kind of experiment: CDK6/Cyclin D3 kinase assay (Nanosyn, Caliper microfluidic). To be noted: 12-point dose-response, ATP at Km (300 μM), 3 hr. As to the method: as §1, with “CDK6/Cyclin D3:” for “CDK7/Cyclin H:”, “2” for “10”, “300” for “50”, “3” for “17”
Chain of CDK6/Cyclin D3 (Q00534 whole entry): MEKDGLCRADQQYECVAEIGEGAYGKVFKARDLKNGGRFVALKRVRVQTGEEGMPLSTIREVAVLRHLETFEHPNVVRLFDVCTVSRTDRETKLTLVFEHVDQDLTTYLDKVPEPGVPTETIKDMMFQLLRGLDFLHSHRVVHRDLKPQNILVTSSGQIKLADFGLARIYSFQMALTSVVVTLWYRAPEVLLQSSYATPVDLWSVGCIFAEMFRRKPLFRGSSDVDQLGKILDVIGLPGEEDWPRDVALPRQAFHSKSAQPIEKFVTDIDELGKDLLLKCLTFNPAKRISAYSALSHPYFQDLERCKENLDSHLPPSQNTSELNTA
Chain of CDK6/Cyclin D3 (P30281 whole entry partner): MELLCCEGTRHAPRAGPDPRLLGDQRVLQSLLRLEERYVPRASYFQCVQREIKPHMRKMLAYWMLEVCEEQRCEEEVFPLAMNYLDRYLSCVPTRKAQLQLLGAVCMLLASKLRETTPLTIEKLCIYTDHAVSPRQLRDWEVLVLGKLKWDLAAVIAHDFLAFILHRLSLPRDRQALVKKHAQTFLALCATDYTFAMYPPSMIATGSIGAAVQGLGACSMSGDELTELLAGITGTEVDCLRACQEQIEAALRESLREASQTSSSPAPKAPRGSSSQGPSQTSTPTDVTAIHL
For a further assay, the target named is CDK1/Cyclin B1 (Homo sapiens, UniProt P06493). As to the kind of experiment: CDK1/Cyclin B1 kinase assay (Nanosyn, Caliper microfluidic). As to conditions: 12-point dose-response, ATP at Km (40 μM), 3 hr. As to the method:
as §1, with “CDK1/Cyclin B1:” for “CDK7/Cyclin H:”, “0.08” for “10”, “40” for “50”, “3” for “17”

A further assay deals with CDK3/Cyclin E (Homo sapiens, UniProt Q00526). As to the kind of experiment: CDK3/Cyclin E kinase assay (Nanosyn, Caliper microfluidic). As to conditions: 12-point dose-response, ATP at Km (400 μM), 3 hr. On the procedure:
as §1, with “CDK3/Cyclin E:” for “CDK7/Cyclin H:”, “1” for “10”, “400” for “50”, “3” for “17”

For a further assay, the target named is CDK2/Cyclin A (Homo sapiens, UniProt P24941). As to the kind of experiment: CDK2/Cyclin A kinase assay (Nanosyn, Caliper microfluidic). As to conditions: 12-point dose-response, ATP at Km (50 μM), 3 hr. On the procedure:
as §1, with “CDK2/Cyclin A:” for “CDK7/Cyclin H:”, “0.1” for “10”, “3” for “17”

A further assay addresses CDK4/Cyclin D1 (Homo sapiens, UniProt P11802). Nature of the assay: CDK4/Cyclin D1 kinase assay (Nanosyn, Caliper microfluidic). To be noted: 12-point dose-response, ATP at Km (200 μM), 3 hr; Table 4. The gist of the method:
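Caliper microfluidic mobility-shift read-out, 12-point dose-response in singlicate. 1 nM enzyme, 200 μM ATP (Km), 1 μM peptide substrate, 3 hr incubation; staurosporine as reference.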

In another assay the target is CDK5/p35 (Homo sapiens, UniProt Q00535). As to the kind of experiment: CDK5/p35 kinase assay (Nanosyn, Caliper microfluidic). As to conditions: 12-point dose-response, ATP at Km (20 μM), 3 hr. As to the method: as §1, with “CDK5/p35:” for “CDK7/Cyclin H:”, “0.05” for “10”, “20” for “50”, “3” for “17”
Chain of CDK5/p35 (Q00535 whole entry): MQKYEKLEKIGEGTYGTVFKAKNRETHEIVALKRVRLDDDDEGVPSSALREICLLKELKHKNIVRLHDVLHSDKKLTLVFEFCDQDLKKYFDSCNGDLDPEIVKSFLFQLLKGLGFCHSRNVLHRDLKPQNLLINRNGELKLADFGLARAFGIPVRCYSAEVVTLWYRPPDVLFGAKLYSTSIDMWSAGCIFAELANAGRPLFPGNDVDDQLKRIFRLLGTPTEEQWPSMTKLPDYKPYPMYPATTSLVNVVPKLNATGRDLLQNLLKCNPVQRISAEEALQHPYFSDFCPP
Chain of CDK5/p35 (Q15078 whole entry partner): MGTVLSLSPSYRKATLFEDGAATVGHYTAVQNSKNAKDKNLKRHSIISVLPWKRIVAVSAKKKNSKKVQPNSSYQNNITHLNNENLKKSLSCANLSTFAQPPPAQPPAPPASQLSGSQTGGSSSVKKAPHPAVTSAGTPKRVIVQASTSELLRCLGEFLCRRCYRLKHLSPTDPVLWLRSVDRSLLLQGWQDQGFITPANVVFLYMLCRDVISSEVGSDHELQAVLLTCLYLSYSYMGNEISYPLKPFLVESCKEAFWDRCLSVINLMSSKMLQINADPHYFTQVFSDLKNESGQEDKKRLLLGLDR

Each structure is given as a SMILES string.

Chain of CDK1/Cyclin B1 (P06493 whole entry): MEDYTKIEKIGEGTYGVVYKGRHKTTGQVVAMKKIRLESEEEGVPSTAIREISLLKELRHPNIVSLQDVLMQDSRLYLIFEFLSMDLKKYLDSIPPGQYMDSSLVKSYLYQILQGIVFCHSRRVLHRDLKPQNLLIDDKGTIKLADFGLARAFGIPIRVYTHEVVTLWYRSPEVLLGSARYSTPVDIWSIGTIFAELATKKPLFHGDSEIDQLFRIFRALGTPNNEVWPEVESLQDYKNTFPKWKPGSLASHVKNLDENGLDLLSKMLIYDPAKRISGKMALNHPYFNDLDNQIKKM
Chain of CDK1/Cyclin B1 (P14635 whole entry partner): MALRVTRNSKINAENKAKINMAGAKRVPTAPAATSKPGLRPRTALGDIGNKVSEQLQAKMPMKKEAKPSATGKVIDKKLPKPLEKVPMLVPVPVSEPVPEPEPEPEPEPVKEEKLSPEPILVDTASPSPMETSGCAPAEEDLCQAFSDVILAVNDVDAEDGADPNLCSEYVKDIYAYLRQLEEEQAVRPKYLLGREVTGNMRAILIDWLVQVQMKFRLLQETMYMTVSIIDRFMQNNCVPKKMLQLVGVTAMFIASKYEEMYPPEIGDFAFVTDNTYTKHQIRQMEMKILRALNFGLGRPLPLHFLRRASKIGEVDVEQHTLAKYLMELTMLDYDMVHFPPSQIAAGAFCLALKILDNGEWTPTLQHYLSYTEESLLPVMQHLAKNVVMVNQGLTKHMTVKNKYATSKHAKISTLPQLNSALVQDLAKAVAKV
Chain of CDK5/p25 (Q00535 whole entry): as the sequence (Q00535 whole entry) above
Chain of CDK5/p25 (Q15078 99-307 partner limits assumed): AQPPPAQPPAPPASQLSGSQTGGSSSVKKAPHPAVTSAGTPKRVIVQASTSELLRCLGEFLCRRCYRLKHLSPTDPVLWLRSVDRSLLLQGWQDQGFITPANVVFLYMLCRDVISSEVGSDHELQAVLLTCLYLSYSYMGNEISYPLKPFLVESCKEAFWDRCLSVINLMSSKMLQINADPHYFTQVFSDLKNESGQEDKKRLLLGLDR
Chain of CDK4/Cyclin D1 (P11802 whole entry): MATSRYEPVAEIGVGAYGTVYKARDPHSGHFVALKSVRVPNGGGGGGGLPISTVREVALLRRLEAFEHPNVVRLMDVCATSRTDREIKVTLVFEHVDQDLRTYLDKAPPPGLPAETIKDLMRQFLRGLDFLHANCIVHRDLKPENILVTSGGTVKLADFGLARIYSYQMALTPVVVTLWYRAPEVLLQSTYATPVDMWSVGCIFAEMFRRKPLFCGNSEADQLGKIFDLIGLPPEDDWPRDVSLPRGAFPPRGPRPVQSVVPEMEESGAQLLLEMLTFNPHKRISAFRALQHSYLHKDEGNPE
Chain of CDK4/Cyclin D1 (P24385 whole entry partner): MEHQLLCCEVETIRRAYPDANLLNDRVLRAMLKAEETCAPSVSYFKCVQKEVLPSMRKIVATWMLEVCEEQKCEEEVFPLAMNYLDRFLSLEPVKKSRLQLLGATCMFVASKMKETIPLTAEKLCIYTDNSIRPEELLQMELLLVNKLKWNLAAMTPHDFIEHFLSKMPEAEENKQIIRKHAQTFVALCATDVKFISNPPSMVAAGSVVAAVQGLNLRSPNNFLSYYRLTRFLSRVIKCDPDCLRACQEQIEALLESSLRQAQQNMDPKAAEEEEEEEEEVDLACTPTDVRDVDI

`O=C1NCC2(CCCCC2)n2c1cc1cnc(N[C@@H]3CCCN[C@@H]3c3ccccc3)nc12` [Compound 9, 2′-(((2R,3R)-2-phenylpiperidin-3-yl)amino)-7′,8′-dihydro-6′H-spiro[cyclohexane-1,9′-pyrazino[1′,2′:1,5]pyrrolo[2,3-d]pyrimidin]-6'-one]: the IC50 – broadly, the midpoint of a concentration-inhibition curve – is 20000 nM at CDK7/Cyclin H; above 100000 nM on CDK5/p25; above 100000 nM against CDK2/Cyclin E; 1600 nM against CDK9/Cyclin T; 12000 nM against CDK6/Cyclin D3; 82000 nM at CDK1/Cyclin B1. Moreover, the IC50 was above 100000 nM on CDK3/Cyclin E, 71000 nM against CDK2/Cyclin A, 120 nM against CDK4/Cyclin D1 and above 100000 nM against CDK5/p35.
Take `O=C1NCC2(CCCCC2)n2c1cc1cnc(N[C@H]3CCCNC3=O)nc12` [Compound 23, (S)-2′-((2-oxopiperidin-3-yl)amino)-7′,8′-dihydro-6′H-spiro[cyclohexane-1,9′-pyrazino[1′,2′:1,5]pyrrolo[2,3-d]pyrimidin]-6′-one]: the IC50 was determined as 61000 nM at CDK7/Cyclin H; 55000 nM on CDK5/p25; 35000 nM against CDK2/Cyclin E; 690 nM on CDK9/Cyclin T; 940 nM against CDK6/Cyclin D3; 39000 nM against CDK1/Cyclin B1. Moreover, the IC50 came to 56000 nM against CDK3/Cyclin E, 28000 nM at CDK2/Cyclin A, 170 nM against CDK4/Cyclin D1 and 47000 nM against CDK5/p35.
As to `O=C(C[C@@H]1CCCN1)Nc1ncc2cc3n(c2n1)C1(CCCCC1)CNC3=O` [Compound 34, (S)-N-(6′-oxo-7′,8′-dihydro-6′H-spiro[cyclohexane-1,9′-pyrazino[1′,2′:1,5]pyrrolo[2,3-d]pyrimidin]-2′-yl)-2-(pyrrolidin-2-yl)acetamide], the IC50 against CDK7/Cyclin H was determined as 17000 nM; at CDK5/p25, 52000 nM; against CDK2/Cyclin E it was 27000 nM; at CDK9/Cyclin T, 190 nM; against CDK6/Cyclin D3, 8400 nM; against CDK1/Cyclin B1, 18000 nM. For the same molecule, the IC50 at CDK3/Cyclin E worked out at 33000 nM; on CDK2/Cyclin A, 12000 nM; against CDK4/Cyclin D1, 2900 nM; on CDK5/p35, 29000 nM.
On to `CN(C)[C@H]1CC[C@H](Nc2ncc3cc4n(c3n2)C2(CCCCC2)CNC4=O)CC1` [Compound 45, 2′-(((1,4-trans)-4-(dimethylamino)cyclohexyl)amino)-7′,8′-dihydro-6′H-spiro[cyclohexane-1,9′-pyrazino[1′,2′:1,5]pyrrolo[2,3-d]pyrimidin]-6′-one], for which the IC50 is 86 nM on CDK7/Cyclin H; 360 nM on CDK5/p25; 260 nM at CDK2/Cyclin E; 3.3 nM against CDK9/Cyclin T; 47 nM against CDK6/Cyclin D3; 270 nM on CDK1/Cyclin B1. Besides, the IC50 against CDK3/Cyclin E is 240 nM; on CDK2/Cyclin A it was 140 nM; against CDK4/Cyclin D1, 11 nM; on CDK5/p35, 310 nM.
`O=C1NCC2(CCCCC2)n2c1cc1cnc(N[C@H]3CC[C@H](N4CCOCC4)CC3)nc12` [Compound 44, 2′-(((1,4-trans)-4-morpholinocyclohexyl)amino)-7′,8′-dihydro-6′H-spiro[cyclohexane-1,9′-pyrazino[1′,2′:1,5]pyrrolo[2,3-d]pyrimidin]-6′-one]: the IC50 on CDK7/Cyclin H is 270 nM; against CDK5/p25, 270 nM; against CDK2/Cyclin E, 290 nM; against CDK9/Cyclin T, 6.2 nM; at CDK6/Cyclin D3 it was 100 nM; on CDK1/Cyclin B1 it was 490 nM. Moreover, the IC50 was 470 nM against CDK3/Cyclin E, 170 nM at CDK2/Cyclin A, 24 nM at CDK4/Cyclin D1 and 320 nM at CDK5/p35.
In the case of `O=C1NCC2(CCCCC2)n2c1cc1cnc(N[C@H]3CC[C@H](NCc4cccnc4)CC3)nc12` [Compound 21, 2′-(((1,4-trans)-4-((pyridin-3-ylmethyl)amino)cyclohexyl)amino)-7′,8′-dihydro-6′H-spiro[cyclohexane-1,9′-pyrazino[1′,2′:1,5]pyrrolo[2,3-d]pyrimidin]-6′-one], the IC50 on CDK7/Cyclin H worked out at 110 nM; against CDK5/p25, 320 nM; against CDK2/Cyclin E it was 220 nM; against CDK9/Cyclin T, 2.1 nM; against CDK6/Cyclin D3 it was 71 nM; against CDK1/Cyclin B1 it was 310 nM. The IC50 on CDK3/Cyclin E worked out at 290 nM; against CDK2/Cyclin A, 140 nM; at CDK4/Cyclin D1 it was 14 nM; against CDK5/p35, 350 nM.
As for `O=C1NCC2(CCCCC2)n2c1cc1cnc(N[C@H]3CC[C@H](N4CCCCC4)CC3)nc12` [Compound 46, 2′-(((1,4-trans)-4-(piperidin-1-yl)cyclohexyl)amino)-7′,8′-dihydro-6′H-spiro[cyclohexane-1,9′-pyrazino[1′,2′:1,5]pyrrolo[2,3-d]pyrimidin]-6′-one], the IC50 at CDK7/Cyclin H turned out to be 280 nM; against CDK5/p25 it was 760 nM; against CDK2/Cyclin E it was 470 nM; against CDK9/Cyclin T it was 6.4 nM; against CDK6/Cyclin D3, 78 nM; on CDK1/Cyclin B1, 510 nM. The IC50 against CDK3/Cyclin E was 520 nM; on CDK2/Cyclin A it was 250 nM; on CDK4/Cyclin D1, 21 nM; on CDK5/p35, 710 nM.
Consider `O=C1NCC2(CCCCC2)n2c1cc1cnc(NC(=O)[C@H]3CNCCO3)nc12` [Compound 35, (R)-N-(6′-oxo-7′,8′-dihydro-6′H-spiro[cyclohexane-1,9′-pyrazino[1′,2′:1,5]pyrrolo[2,3-d]pyrimidin]-2′-yl)morpholine-2-carboxamide], for which the IC50 against CDK7/Cyclin H is 61000 nM; against CDK5/p25, 43000 nM; against CDK2/Cyclin E, 26000 nM; on CDK9/Cyclin T, 88 nM; against CDK6/Cyclin D3 it was above 100000 nM; at CDK1/Cyclin B1 it was 31000 nM. For the same molecule, the IC50 was 54000 nM against CDK3/Cyclin E, 10000 nM on CDK2/Cyclin A, 27000 nM against CDK4/Cyclin D1 and 40000 nM against CDK5/p35.
